Where two headings read alike, the source gives them in different places.
Legend:
[1] = Comparison of bioavailability after nasal, intravenous and oral administration; format: in vivo, Sprague-Dawley male rats; conditions: rats, 2 mg/kg; for Cmax / Tmax / AUC(0-t): male, Sprague-Dawley, rat, in vivo; for AUC(0-t): read-out: AUC0-2hr
Procedure: Twenty four (24) white rats (body weight 250-300 g, Sprague-Dawley male rats) were classified into 3 groups, namely 6, 11 and 7 rats. After nasal, intravenous and oral administration to each group of rats, the bioavailability according to the different routes of administration was compared.
Ondansetron hydrochloride was dissolved in the composition obtained in Formulation Example for nasal administration, in 0.9% saline for intravenous administration, and in purified water for oral administration as vehicles, respectively. Each 2 mg/kg of the solutions was administered thereby. The blood samples were collected at the predetermined time intervals to analyze the concentration of ondansetron hydrochloride in the plasma. The bioavailibity parameters were calculated from the assay results.

[2] = Permeation through excised colonic mucosa; format: in vitro ADME, rabbit
From the text: (§1) The results are shown in below Table 2.

[3] = Permeation through excised rectal mucosa; format: in vitro ADME, rabbit
From the text: as §1

[4] = Permeation through excised duodenal mucosa; format: in vitro ADME, rabbit
From the text: as §1

[5] = Test for intranasal stability of active ingredient in nasal mucosa extract; conditions: 37° C.; for Residual Concentration: 200 μg/mL added
Procedure: The fresh nasal mucosa excised from a rabbit (body weight 3.0 kg, New Zealand White female rabbit) was mounted to the Valia-Chien permeation system maintained at a constant temperature of 37° C. Each of the donor and receptor half-cells was filled with each 3.5 mL of saline, maintained at the constant temperature for 4 hours while stirring with a magnetic star-head bar, and then both extracts from the half-cells were combined and used as nasal mucosa extracts.
Ondansetron hydrochloride (200 μg/mL) was added to the obtained nasal mucosa extract, and then maintained at the temperature of 37° C. for 4 hours while gently shaking in order to confirm the physiochemical or enzymatic stability of ondansetron hydrochloride in a nasal cavity.

[6] = format: in vitro ADME; conditions: female, New Zealand White, rabbit
From the text: as §1

[7] = inhaled or intranasal, nasal, in composition of Formulation Example

Cc1nccn1CC1CCc2c(c3ccccc3n2C)C1=O.Cl.O.O (stereo not shown) [ondansetron hydrochloride, 1,2,3,9-tetrahydro-9-methyl-3-[(2-methyl-1H-imidazol-1-yl)methyl]-4H-carbazol-4-one hydrochloride dihydrate]
Cmax [1, 7]: 49.4 ± 18.7 ng/mL | Tmax [1, 7]: 9.4 min | AUC(0-t) [1, 7]: 53.2 ± 9.5 ng·h/mL | AUC(0-t) ([1]; IV injection, in 0.9% saline): 51.1 ± 7.4 ng·h/mL | Cmax ([1]; oral, in purified water): 29.7 ± 10.6 ng/mL | Tmax ([1]; oral, in purified water): 11.8 min | AUC(0-t) ([1]; oral, in purified water): 24.9 ± 12.6 ng·h/mL | AUC0-2 hr in nasal administration higher than that in oral administration [1]: 2.1 times | Cmax in oral administration lower than that in nasal administration [1]: 1.7 times | Cumulative Amounts ([2]; 0.5 hr): 14.3 ± 2.2 μg/cm^2 | Cumulative Amounts ([2]; 1.0 hr): 36.5 ± 7.8 μg/cm^2 | Cumulative Amounts ([2]; 2.0 hr): 112.1 ± 14.6 μg/cm^2 | Cumulative Amounts ([2]; 4.0 hr): 294.8 ± 14.7 μg/cm^2 | Cumulative Amounts ([2]; 6.0 hr): 438.9 ± 27.2 μg/cm^2 | Cumulative Amounts ([3]; 0.5 hr): 6.7 ± 0.1 μg/cm^2 | Cumulative Amounts ([3]; 1.0 hr): 9.6 ± 0.9 μg/cm^2 | Cumulative Amounts ([3]; 2.0 hr): 19.3 ± 5.8 μg/cm^2 | Cumulative Amounts ([3]; 4.0 hr): 54.1 ± 6.7 μg/cm^2 | Cumulative Amounts ([3]; 6.0 hr): 164.2 ± 9.2 μg/cm^2 | Cumulative Amounts ([4]; 0.5 hr): 14.8 ± 3.5 μg/cm^2 | Cumulative Amounts ([4]; 1.0 hr): 35.4 ± 8.2 μg/cm^2 | Cumulative Amounts ([4]; 2.0 hr): 94.6 ± 23.9 μg/cm^2 | Cumulative Amounts ([4]; 4.0 hr): 280.1 ± 43.2 μg/cm^2 | Cumulative Amounts ([4]; 6.0 hr): 453.1 ± 36.3 μg/cm^2 | Residual Concentration ([5]; 0 hr): 198.6 ± 1.3 µg/mL | Residual Concentration ([5]; 1 hr): 199.0 ± 5.2 µg/mL | Residual Concentration ([5]; 2 hr): 203.5 ± 3.0 µg/mL | Residual Concentration ([5]; 3 hr): 196.9 ± 0.6 µg/mL | Residual Concentration ([5]; 4 hr): 197.9 ± 9.6 µg/mL | degradation in nasal mucosa extract ([5]; for 4 hours): not nearly degraded | Cumulative Amounts ([6]; 0.333 hr): 68.2 ± 4.7 μg/cm^2 | permeation rate through nasal mucosa relative to colonic mucosa ([6]; 30 min): 7.5 times | permeation rate through nasal mucosa relative to duodenal mucosa ([6]; 30 min): 7.2 times | permeation rate through nasal mucosa relative to rectal mucosa ([6]; 30 min): 15.8 times | Cumulative Amounts ([6]; 0.5 hr): 106.8 ± 14.9 μg/cm^2 | Cumulative Amounts ([6]; 1 hr): 180.5 ± 12.4 μg/cm^2 | Cumulative Amounts ([6]; 1.5 hr): 261.5 ± 15.1 μg/cm^2 | Cumulative Amounts ([6]; 2 hr): 289.3 ± 23.5 μg/cm^2 | Cumulative Amounts ([6]; 3 hr): 414.6 ± 22.6 μg/cm^2 | Cumulative Amounts ([6]; 4 hr): 559.4 ± 28.2 μg/cm^2

Reference: US20030044356A1, “Composition for nasal solution sprays having effective component of 1,2,3,9-tetrahydro-9-methyl-3-[(2-methyl-1H-imidazol-1-yl)methyl]-4H-carbazol-4-one)” (priority 2001, published 2003)
